Where two headings read alike, the source gives them in different places.
Key:
human CB2 [1] = target: T1, human CB2 (Homo sapiens, UniProt P34972); test: biochemical; type: binding; settings: for CB2 Ki (μM, 95% CI) / CB2 pKi ± SEM / Ki: [3H]CP-55,940 displacement, CHO-K1 membranes
Method: The compounds selected for the in vitro binding assay were purchased via MolPort, SIA, Riga, Latvia (Supporting Information S2). Membrane preparations from CHO-K1 cells expressing the human CB2 (ChemiSCREEN Membrane Preparation Recombinant Human CB2 Cannabinoid Receptor. Merck, USA) were incubated in duplicate with 0.8 nM [^3H]CP-55,940 (specific activity: 101 Ci/mmole, PerkinElmer, USA) in a 50 mM Tris–HCl, pH = 7.4 buffer supplemented with 2.5 mM EDTA, 5 mM MgCl2, 0.5 mg/mL BSA and increasing concentrations of the compounds tested. Compounds were dissolved in 50% DMSO and added to the reaction mixture at 10 concentrations equally spaced on a log scale (10^–10–10^–4.5 M). The final DMSO concentration was 5%. […] The reaction mixture (500 μL) was incubated for 1.5 h at 30 °C. Before harvesting, Brandel Whatman GF/B Filter Paper was presoaked with 0.5% polyethylenimine buffer for 30 min and then washed with 2 mL of 50 mM Tris–HCl buffer (pH = 7.4) containing 0.5% BSA to minimize nonspecific binding. The reaction was terminated by depositing the samples onto the filter paper with the Brandel M–24 Cell Harvester. Samples were then rapidly washed three times with 2 mL of wash buffer (50 mM Tris–HCl pH 7.4, 2.5 mM EDTA, 5 mM MgCl2, 0.5 mg/mL BSA) to separate the bound radioligand from free. Filters were then air-dried for 1.5 h at 60 °C. After drying, filter discs were placed on a flexible 24-well plate and 500 μL of EcoScint-20 scintillant (PerkinElmer, USA) was added to each well. Plates were counted (2 min per well) in a Trilux MicroBeta counter (PerkinElmer, USA). Data were analyzed with GraphPad Prism 5.0 software.

human CB2 [2] = target: T1, human CB2; settings: cited from earlier work
human CB1 receptors = target: T2, human CB1 receptors (Homo sapiens, UniProt P21554); test: CB1 radioligand displacement assay ([3H]CP-55,940); type: binding; settings: for CB1 Ki (μM, 95% CI) / CB1 pKi ± SEM: [3H]CP-55,940 displacement, Chem-1 membranes
T2 construct: purchased Merck; host or cells: Chem-1
T2 sequence (P21554 whole entry): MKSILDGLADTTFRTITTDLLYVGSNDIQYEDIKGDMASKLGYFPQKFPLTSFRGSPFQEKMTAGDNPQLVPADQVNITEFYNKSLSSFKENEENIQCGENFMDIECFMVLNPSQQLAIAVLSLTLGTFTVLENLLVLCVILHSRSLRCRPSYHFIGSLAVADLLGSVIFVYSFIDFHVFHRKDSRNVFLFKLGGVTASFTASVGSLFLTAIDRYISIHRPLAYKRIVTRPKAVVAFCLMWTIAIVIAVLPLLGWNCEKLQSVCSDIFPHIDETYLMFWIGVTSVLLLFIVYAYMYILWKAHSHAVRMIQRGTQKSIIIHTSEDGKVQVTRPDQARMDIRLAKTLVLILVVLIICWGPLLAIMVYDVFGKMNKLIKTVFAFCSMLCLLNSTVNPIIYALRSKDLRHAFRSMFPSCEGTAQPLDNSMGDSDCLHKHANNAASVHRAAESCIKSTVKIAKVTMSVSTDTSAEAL
Method: Membrane preparations from Chem-1 cells expressing the human CB1 receptors (ChemiSCREEN CB1 Cannabinoid Receptor Membrane Preparation. Merck, USA) were incubated in duplicate with 1 nM [^3H]CP-55,940 (specific activity: 108.5 Ci/mmole, PerkinElmer, USA) in a 50 mM Tris–HCl, pH = 7.4 buffer supplemented with 1 mM CaCl2, 5 mM MgCl2, 0.2% BSA and increasing concentrations of the compounds tested. Compounds were dissolved in 50% DMSO and added to the reaction mixture at 10 concentrations equally spaced on a log scale (10^–10–10^–4.5 M). The final DMSO concentration was 5%. […] The reaction mixture (500 μL) was incubated for 1.5 h at 30 °C. Before harvesting, Brandel Whatman GF/B Filter Paper was presoaked with 0.5% polyethylenimine buffer for 30 min and then washed with 2 mL of 50 mM Tris–HCl buffer (pH = 7.4) containing 0.5% BSA to minimize nonspecific binding. The reaction was terminated by depositing the samples onto the filter paper with the Brandel M-24 Cell Harvester. Samples were then rapidly washed three times with 2 mL of wash buffer (50 mM Tris–HCl pH 7.4, 500 mM NaCl, and 5 mM MgCl2) to separate the bound radioligand from the free one. The rest of the procedure was the same as for CB2.

human CB2 [3] = target: T1, human CB2; test: CB2 [35S]GTPγS assay; type: biochemical; design: purchased PerkinElmer ES-111-M400UA; host or cells: CHO-K1; settings: compounds at 10 μM, 100 nM CP-55,940 as stimulating ligand
Method: Ten micromolar concentrations of each compound were incubated in triplicate with membrane preparations from CHO-K1 cells expressing the human CB2 receptor (0.5 μg per well) (PerkinElmer, Cat. No. ES-111-M400UA) in an assay buffer containing 50 mM Tris–HCl, pH = 7.4, 0.2 mM EGTA, 3 mM MgCl2, 100 mM NaCl, 30 μM GDP and 1 mg/mL BSA) in the presence of 0.08 nM [^35S] guanosine 5′-[γ-thio]triphosphate ([^35S]GTPγS) (specific activity: 1250 Ci/mmole, PerkinElmer). Nonspecific binding was determined with 100 μM of unlabeled GTPγS. CP-55,940 (100 nM) was used as stimulating ligand. The final DMSO concentration in the assay was 5%. The reaction mixture was incubated for 60 min at 30 °C. Next, the samples were deposited under vacuum with the FilterMate Harvester (PerkinElmer, USA) onto Unifilter GF/B Plates (PerkinElmer, USA) presoaked with wash buffer (50 mM Tris–HCl, pH = 7.4). The samples were then rapidly washed with 2 mL of wash buffer. Filter plates were dried for 30 min at 50 °C and 40 μL of MicroScint PS (PerkinElmer, USA) scintillation fluid was added to each well. Radioactivity was counted in a Trilux MicroBeta^2 counter (PerkinElmer, USA). Data were analyzed with GraphPad Prism 5.0 software. Results were expressed as percent of basal [^35S]GTPγS binding in the presence of CP-55,940 from three separate experiments. Basal binding was set to 100%.

[4] = read-out: CB2 pKi ± SEM (converted)

T1 sequence (P34972 whole entry): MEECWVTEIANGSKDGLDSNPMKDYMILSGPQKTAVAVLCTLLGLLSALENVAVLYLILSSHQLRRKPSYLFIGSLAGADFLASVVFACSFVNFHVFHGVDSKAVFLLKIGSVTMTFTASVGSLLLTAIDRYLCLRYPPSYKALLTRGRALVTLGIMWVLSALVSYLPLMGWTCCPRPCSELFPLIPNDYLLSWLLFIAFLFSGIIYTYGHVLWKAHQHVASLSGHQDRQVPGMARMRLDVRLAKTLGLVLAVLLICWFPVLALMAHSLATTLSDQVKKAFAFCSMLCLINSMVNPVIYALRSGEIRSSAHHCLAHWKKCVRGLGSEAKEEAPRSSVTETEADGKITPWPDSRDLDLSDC

CN(Cc1ccccn1)C(=O)c1c2ccccc2c2n1CCCN(Cc1ccccc1)C2=O [AS-15]
CB2 Ki (μM, 95% CI) (human CB2 [1]): no activity | CB2 pKi ± SEM (human CB2 [1]): no activity

COc1ccc(C(=O)c2c(C)n(CCN3CCOCC3)c3cc(I)ccc23)cc1 [AM-630]
Ki (human CB2 [2]): 31.2 nM

Cc1nn(-c2ccccc2)c(C)c1CCc1nn2c(-c3ccccc3F)nnc2s1 [AS-4]
CB2 Ki (μM, 95% CI) (human CB2 [1]): no activity | CB2 pKi ± SEM (human CB2 [1]): no activity

Cc1nn(-c2ccccc2)c(C)c1C(=O)C(=O)Nc1cc(F)ccc1NC(=O)c1ccccn1 [AS-13]
CB2 Ki (μM, 95% CI) (human CB2 [1]): no activity | CB2 pKi ± SEM (human CB2 [1]): no activity

CCOC(=O)c1ccc(NC(=O)Cn2c(=O)nc(-c3ccccc3)c3cc(Cl)ccc32)cc1 [AS-2]
CB2 Ki (μM, 95% CI) (human CB2 [1]): no activity | CB2 pKi ± SEM (human CB2 [1]): no activity

N#Cc1c(Oc2cccc(OS(=O)(=O)CCCC(F)(F)F)c2)cccc1C(F)(F)F [BAY 59-3074]
Ki (human CB2 [2]): 45.5 nM

Cc1sc2nc(SCC(=O)c3ccc4c(c3)N(C)C(=O)CO4)nc(O)c2c1-c1ccccc1 [AS-1]
CB2 Ki (μM, 95% CI) (human CB2 [1]): no activity | CB2 pKi ± SEM (human CB2 [1]): no activity

CCCC(C)(C)c1ccc2c(c1)OC(C)(C)[C@@H]1CC=C(C)C[C@@H]21 [JWH-133]
Ki (human CB2 [2]): 3.4 nM

Cc1ccccc1-c1cc(C(=O)N2CCN(Cc3ccc4c(c3)OCO4)CC2)c2ccccc2n1 [AS-5]
CB1 Ki (μM, 95% CI) (human CB1 receptors): no activity | CB1 pKi ± SEM (human CB1 receptors): no activity | Ki (human CB2 [1]; [4]): 0.209 µM | CB2 intrinsic activity (human CB2 [3]): CB2 antagonists

Cc1cc(C(=O)Nc2cccc(C)c2C)c2c(C)nn(Cc3ccccc3)c2n1 [AS-12]
CB2 Ki (μM, 95% CI) (human CB2 [1]): no activity | CB2 pKi ± SEM (human CB2 [1]): no activity

Cc1nn(Cc2ccccc2)c(Cl)c1C(=O)NCc1ccccc1Cn1ccnc1 [AS-10]
Ki (human CB2 [1]; read-out: CB2 Ki (μM, 95% CI)): 17.9 µM | Ki (human CB2 [1]; [4]): 18.2 µM

CCCCCc1cc(O)c(C/C=C(\C)CCC=C(C)C)c(O)c1 [Cannabigerol]
Ki (human CB2 [2]): 2920 nM

COc1cccc(-c2nn(Cn3nc([N+](=O)[O-])cc3C)c(-c3cccc(OC)c3)c2Cl)c1 [AS-9]
CB1 Ki (μM, 95% CI) (human CB1 receptors): no activity | CB1 pKi ± SEM (human CB1 receptors): no activity | Ki (human CB2 [1]; [4]): 2.09 µM

COCc1cc2nn(CC(=O)NCc3ccccc3Cl)c(=O)n2c(-c2ccccc2)n1 [AS-14]
CB2 Ki (μM, 95% CI) (human CB2 [1]): no activity | CB2 pKi ± SEM (human CB2 [1]): no activity

O=C(NCc1cccs1)c1cccc(Nc2nn3c(=O)c4ccccc4nc3s2)c1 [AS-11]
CB2 Ki (μM, 95% CI) (human CB2 [1]): no activity | CB2 pKi ± SEM (human CB2 [1]): no activity

C[C@H](Sc1nnc2c3ccccc3nc(-c3ccccc3)n12)C(=O)NC[C@@H]1CCCO1 [AS-8]
CB1 Ki (μM, 95% CI) (human CB1 receptors): no activity | CB1 pKi ± SEM (human CB1 receptors): no activity | Ki (human CB2 [1]; read-out: CB2 Ki (μM, 95% CI)): 6.37 µM

Cc1cc(CSc2nnc(-c3nn(Cc4ccccc4)c(=O)c4ccccc34)o2)no1 [AS-6]
CB2 Ki (μM, 95% CI) (human CB2 [1]): no activity | CB2 pKi ± SEM (human CB2 [1]): no activity

COc1cccc(Oc2c(C)oc3c4c(ccc3c2=O)OCN(Cc2ccccn2)C4)c1 [AS-3]
CB2 Ki (μM, 95% CI) (human CB2 [1]): no activity | CB2 pKi ± SEM (human CB2 [1]): no activity

Cc1cc(C)n(C[C@@H](O)c2ccc(-n3c4c(c5ccccc5c3=O)C(=O)c3ccccc3-4)cc2)n1 [AS-16]
CB2 Ki (μM, 95% CI) (human CB2 [1]): no activity | CB2 pKi ± SEM (human CB2 [1]): no activity

COc1ccc(C(=O)/C=C(\C(=O)c2ccccc2)c2ccccc2)cc1CN1CCOCC1 [AS-7]
Ki (human CB1 receptors): 2670 nM | CB1 pKi ± SEM (human CB1 receptors): 5.57 ± 0.9 | selectivity index for CB2 (Ki-CB1/Ki-CB2) (human CB2 [1]): > 40 | Ki (human CB2 [1]; CB2 Ki (μM, 95% CI)): 0.065 µM | Ki (human CB2 [1]; CB2 pKi ± SEM): 0.0661 µM | CB2 intrinsic activity (human CB2 [3]): CB2 antagonists
